Experimental data reported in PubChem BioAssay (NCI).
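Following 48 hours of exposure in 96-well plates, responses at five concentrations were used to interpolate endpoints linearly. GI50 marks 50% less growth. The concentration for full growth arrest is given as TGI.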

What was measured:
Experiment in all cases: NCI tumour cell line growth inhibition, 48 h
BT-549 breast = tested on: BT-549 breast
DLD-1 colon = tested on: DLD-1 colon
XF 498 CNS = tested on: XF 498 CNS
HOP-18 NSCLC = tested on: HOP-18 NSCLC
RXF-631 renal = tested on: RXF-631 renal
M19-MEL melanoma = tested on: M19-MEL melanoma
SNB-78 CNS = tested on: SNB-78 CNS
MDA-N = tested on: MDA-N

Row | SMILES | GI50 (BT-549 breast) [µM] | TGI (BT-549 breast) [µM] | TGI (DLD-1 colon) [µM] | TGI (XF 498 CNS) [µM] | TGI (HOP-18 NSCLC) [µM] | TGI (M19-MEL melanoma) [µM] | TGI (SNB-78 CNS) [µM] | other results
1 | C=CC(=O)N(C)[C@H]1C[C@H]2OC(C)(C1OC)n1c3ccccc3c3c4c(c5c6ccccc6n2c5c31)C(=O)NC4 (stereo partly drawn) | 0.0963 | 0.553 |  |  |  |  |  | 
2 | CC(=O)OC1CCn2nnc(CO[Si](C)(C)C(C)(C)C)c21 (stereo not drawn) |  |  | > 100 | > 100 | > 100 |  |  | 
3 | CN(C)c1ccc(/C=C\c2cccc[n+]2C)cc1 | 2.76 | 79.8 |  |  |  |  |  | 
4 | N#CC(C(=O)CCC(=O)Nc1cccc(Cl)c1)c1ccccc1 (stereo not drawn) |  |  | > 100 |  | > 100 | > 100 | > 100 | TGI (RXF-631 renal): > 100 µM
5 | COc1cc(C(=O)C/C(CCC(=O)Nc2ccccc2[N+](=O)[O-])=N\NC(=O)CC#N)ccc1O |  |  | > 100 | > 100 | > 100 | > 100 |  | TGI (RXF-631 renal): > 100 µM
6 | O=[N+]([O-])c1cccc(-c2nc3sccn3c2-c2ccnc(NCCCNS(=O)(=O)c3cccc(F)c3)n2)c1 | 2.18 | 11.9 |  |  |  |  |  | 
7 | CN(C)c1ccc(C=C2C(=O)OC(C)(C)OC2=O)cc1Br |  |  | > 100 | > 100 | > 100 | > 100 |  | TGI (RXF-631 renal): > 100 µM
8 | CC(CN1CCN(CCOCCO)CC1)CN1c2ccccc2Sc2ccc(Cl)cc21 (stereo not drawn) | 2.45 | 6.67 |  |  |  |  |  | 
9 | COC(=O)Cn1c2c(c3c(O)cccc31)C(=O)c1ccccc1-2 | > 100 | > 100 |  |  |  |  |  | 
10 | COC1CC(OS(=O)(=O)c2ccc(C)cc2)C(OC(=O)c2ccccc2)C(C)O1 (stereo not drawn) |  |  | > 100 | > 100 | > 10 | > 100 | > 100 | GI50 (DLD-1 colon): > 100 µM; GI50 (M19-MEL melanoma): > 100 µM; GI50 (SNB-78 CNS): > 100 µM
11 | COc1ccc(C(OCC2OC(n3ccc(NC(=O)c4ccccc4)nc3=O)C(O)C2O)(c2ccccc2)c2ccccc2)cc1 (stereo not drawn) |  |  |  |  |  |  |  | TGI (MDA-N): 3.79 µM
12 | Cc1cc2c3ccc(C)[n+](C)c3ccc2n1C | 2.27 | 13.1 |  |  |  |  |  | 
13 | O=C(O)C/C=C/CC(=O)O |  | > 100 |  |  |  |  |  | TGI (MDA-N): > 100 µM
14 | COC(=O)C(Cc1ccccc1)NC(=O)NC(=O)NC(=O)CI (stereo not drawn) | 10 | 21.8 |  |  |  |  |  | 
15 | Cc1c(C#N)c(=O)[nH]c(=O)n1CCN1CCN(C(=O)NCCCCCCNC(=O)N2CCN(CCn3c(C)c(C#N)c(=O)[nH]c3=O)CC2)CC1 |  |  | > 100 | > 100 | > 100 | > 100 | > 100 | 
16 | O=C1c2ccccc2-c2c1c1ccc([N+](=O)[O-])cc1c(=O)n2CCCBr | > 100 | > 100 |  |  |  |  |  | 
17 | C=CC(=O)Nc1cccc(C)c1Nc1cc(-c2cccnc2Cc2c(C)c(OC)cc(OC)c2C)ncn1 | 6.23 | 29.6 |  |  |  |  |  | 
18 | CNC(=O)OCc1c(COC(=O)NC)c(C)n(-c2ccc(Br)cc2)c1C |  |  |  |  |  |  |  | TGI (MDA-N): 32 µM

Row | SMILES | GI50 (BT-549 breast) [µM] | TGI (BT-549 breast) [µM] | TGI (DLD-1 colon) [µM] | TGI (XF 498 CNS) [µM] | TGI (HOP-18 NSCLC) [µM] | TGI (M19-MEL melanoma) [µM] | TGI (SNB-78 CNS) [µM] | other results
19 | COc1ccc(C2=C(Cl)c3cc(OC)c(OC)cc3C2Cl)cc1OC (stereo not drawn) |  |  | 34.9 | 29.4 | 55.6 | 31.7 | 75.5 | TGI (RXF-631 renal): 44.4 µM
20 | CCCn1c(C)nc2c1C(=O)c1ccccc1C2=O | 31.4 | > 100 |  |  |  |  |  | 
21 | O=C1C=C(Br)c2c(-c3ccccc3)oc3cccc1c23 |  | > 100 | > 100 |  | > 100 | > 100 | > 100 | TGI (RXF-631 renal): > 100 µM; TGI (MDA-N): 66 µM
22 | Nc1ncnc2[nH]ncc12 | 1.98 | 74.9 |  |  |  |  |  | 
23 | c1ccc(SC(CCCCC(Sc2ccccc2)Sc2ccccc2)Sc2ccccc2)cc1 |  |  | > 100 | > 100 |  | > 100 | > 100 | TGI (RXF-631 renal): > 100 µM
24 | C=CCOC1OC(CO[Si](C)(C)C(C)(C)C)C(OCc2ccccc2)C(OCc2ccccc2)C1OCc1ccccc1 (stereo not drawn) |  | > 100 |  |  |  |  |  | TGI (MDA-N): > 100 µM
25 | COc1ccc(NC(=O)C/C(C)=N\N=C(N)N)c([N+](=O)[O-])c1 |  |  | > 100 | > 100 | > 100 | > 100 | > 100 | 
26 | Cc1cc2c(C)n(Cc3ccc(Cl)cc3Cl)nc2c(C#N)c1C |  |  | > 100 | 23 | > 91.6 | > 100 | > 76.4 | 
27 | CCC1CN2CCc3cc(OC)c(OC)cc3C2CC1CC1c2cc(OC)c(OC)cc2CCN1C(=O)C1CCCN1C(=O)OCc1ccccc1 (stereo not drawn) |  |  | 31 | 30.4 | 53.7 | 28.8 | 31.2 | TGI (RXF-631 renal): 33.9 µM
28 | C=C1CC[C@@H]2[C@](C)(COC(C)=O)[C@@H](O)CC[C@@]2(C)[C@@H]1COc1ccc2ccc(=O)oc2c1 | 47.8 | > 100 |  |  |  |  |  | 
29 | O=C(O)C1(P(=O)(O)O)CC1 |  |  | > 100 | > 100 | > 100 | > 100 | > 100 | 
30 | CCOC(=O)C(=O)Nc1c(CC)cccc1C(C)C |  |  | > 100 | > 100 |  | > 100 | > 100 | 
31 | CN1CCN(Cc2ccc(NC(=O)c3cncc(C#Cc4cnc(N)c5ccncc45)c3)cc2C(F)(F)F)CC1 | 2.22 | > 46.6 |  |  |  |  |  | 
32 | COc1ccc(-c2cc(-c3ccccc3)nc(SCCCC(=O)NO)n2)cc1 | 2.76 | 13.1 |  |  |  |  |  | 
33 | C=C1COC(/C=C(\C)CC/C=C(\C)CCl)C1 (stereo not drawn) |  |  | > 100 | > 100 |  | > 100 | > 100 | 
34 | O=C(N/N=C/c1ccc2c(c1)CCC2)c1ccccc1O |  | 41.7 |  |  |  |  |  | TGI (MDA-N): 64.8 µM
35 | O=C1C(=O)N(c2ccc(Cl)c(Cl)c2)C(=O)C(=O)C1c1nc2ccccc2s1 |  |  | > 100 |  | > 100 | > 100 | > 100 | 
